Experimental data from US9420796B2 (priority 2013, dated 2016).
“And” between values parts separate entries of the source, which are not always exact repeats. Equal entries are not always repeated.

Key:
adult mussels = tested on: adult mussels; design: species or system zebra mussels; conditions: in vivo
zebra mussels = conditions: in vivo; cited from earlier work

Compound	Day of treatment on which complete mortality was observed (adult mussels)	Mortality rate (zebra mussels)
OCl [NaOCl, sodium hypochlorite]	18 days and 23 days	≤ 10%
[K+].[O]=[Mn](=[O])(=[O])[O-] [KMnO]		≤ 10%
